Laboratory results from the supplement of paper PMC10307832.

Assays:
Experiment in all cases: relative viability (nuclei count vs DMSO), 5 days (fraction); higher = more cells survive
[1] = compound: Cc1cnc(Nc2ccc(OCCN3CCCC3)cc2)nc1Nc1cccc(S(=O)(=O)NC(C)(C)C)c1 [Fedratinib] + Cc1cc(Nc2cc(N3CCN(C)CC3)nc(Sc3ccc(NC(=O)C4CC4)cc3)n2)n[nH]1 [Tozasertib] (partner 0.1 µM)
Summary of the method: (§1)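 Lung cancer cell lines were pin-tool dosed in 1536-well plates on the day after seeding, with either a lone drug or a fixed anchor-drug dose plus five library-drug doses (not always all listed) in √10 steps. Nuclei were counted on 4× images after 5 days. Relative viability is the ratio of treated-well to vehicle-well nuclei counts, with each value a median of duplicate plates.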

[2] = compound: Cc1cnc(Nc2ccc(OCCN3CCCC3)cc2)nc1Nc1cccc(S(=O)(=O)NC(C)(C)C)c1 [Fedratinib] + O=C(c1cc(Cc2n[nH]c(=O)c3ccccc23)ccc1F)N1CCN(C(=O)C2CC2)CC1 [Olaparib] (partner 8 µM)
Summary of the method: as §1

[3] = compound: Cc1cnc(Nc2ccc(OCCN3CCCC3)cc2)nc1Nc1cccc(S(=O)(=O)NC(C)(C)C)c1 [Fedratinib] + Nc1ncn([C@H]2C[C@H](O)[C@@H](CO)O2)c(=O)n1 [Decitabine] (partner 2 µM)
Summary of the method: as §1

[4] = compound: COC1=CC=C(C=C1)COC2=C(C=C(C=C2)CC3=CN=C(N=C3N)N)OC [GW-2580] + O=C(CCCCCCC(=O)Nc1ccccc1)NO [Vorinostat] (partner 1 µM)
Summary of the method: as §1

[5] = compound: Cc1cnc(Nc2ccc(OCCN3CCCC3)cc2)nc1Nc1cccc(S(=O)(=O)NC(C)(C)C)c1 [Fedratinib] + O=C(CCCCCCC(=O)Nc1ccccc1)NO [Vorinostat] (partner 1 µM)
Summary of the method: as §1

[6] = compound: Cc1cnc(Nc2ccc(OCCN3CCCC3)cc2)nc1Nc1cccc(S(=O)(=O)NC(C)(C)C)c1 [Fedratinib] + Cc1nc(Nc2ncc(C(=O)Nc3c(C)cccc3Cl)s2)cc(N2CCN(CCO)CC2)n1 [Dasatinib] (partner 0.075 µM)
Summary of the method: as §1

Cell Line	relative viability ([1]; first compound 0.1 µM)	relative viability ([1]; first compound 0.3162 µM)	relative viability ([1]; first compound 1 µM)	relative viability ([2]; first compound 0.1 µM)	relative viability ([2]; first compound 0.3162 µM)	relative viability ([2]; first compound 1 µM)	relative viability ([3]; first compound 0.1 µM)	relative viability ([3]; first compound 0.3162 µM)	relative viability ([3]; first compound 1 µM)	relative viability ([4]; first compound 0.08 µM)	relative viability ([4]; first compound 2.53 µM)	relative viability ([4]; first compound 8 µM)	relative viability ([5]; first compound 0.1 µM)	relative viability ([5]; first compound 0.3162 µM)	relative viability ([5]; first compound 1 µM)	relative viability ([4]; first compound 0.8 µM)	relative viability ([6]; first compound 0.1 µM)	relative viability ([6]; first compound 0.3162 µM)	relative viability ([6]; first compound 1 µM)
NCI-H1648	0.409	0.567	0.422	0.655	0.59	0.691	0.473	0.51	0.443	0.761	0.541	0.496	0.291	0.36	0.616	–	–	–	–
SK-MES-1	0.375	0.857	0.737	0.806	0.654	0.479	0.394	0.409	0.241	1.31	0.993	1.16	1.08	1.09	0.976	1.33	0.285	0.427	0.272
HCC-366	0.0591	0.123	0.072	0.525	0.325	0.345	0.29	0.307	0.366	0.344	0.342	0.357	0.302	0.343	0.249	0.395	0.601	0.595	0.428
201T	0.609	0.904	0.874	0.846	0.867	0.794	0.78	0.855	0.877	1.01	0.992	0.883	0.935	0.975	0.955	0.949	0.515	0.571	0.545
HCC-827	0.345	0.387	0.409	0.606	0.528	0.749	0.292	0.336	0.318	0.652	0.828	0.832	0.862	0.841	0.75	0.915	0.249	0.344	0.298
NCI-H647	0.249	0.336	0.214	0.697	0.467	0.373	0.581	0.327	0.372	0.726	0.59	0.447	0.61	0.782	0.385	0.511	0.21	0.203	0.142
NCI-H2023	0.226	0.289	0.281	0.533	0.488	0.44	0.21	0.23	0.117	0.812	0.598	0.762	0.826	0.626	0.547	0.882	0.614	0.476	0.394
NCI-H520	0.438	0.467	0.405	0.306	0.347	0.29	0.557	0.454	0.532	0.935	0.768	0.682	0.657	0.654	0.634	0.651	0.18	0.205	0.196
RERF-LC-KJ	0.292	0.38	0.347	0.895	0.847	0.805	0.64	0.635	0.277	0.663	0.629	0.684	0.66	0.669	0.573	0.792	0.683	0.768	0.655
A-427	0.183	0.194	0.16	0.648	0.708	0.716	0.596	0.561	0.524	0.534	0.806	0.848	0.873	0.792	0.781	0.97	0.74	0.733	0.249
NCI-H441	0.412	0.538	0.575	0.607	0.481	0.525	0.223	0.218	0.233	0.913	0.68	0.783	0.921	0.749	0.615	0.951	0.618	0.314	0.493
NCI-H1703	–	–	–	–	0.359	0.291	–	–	–	–	–	–	–	–	–	–	–	–	–
NCI-H1792	–	–	–	0.599	0.402	0.282	0.429	0.438	0.504	–	–	–	–	–	–	–	0.619	0.765	0.81
Calu-6	–	–	–	0.618	0.588	0.55	–	–	–	–	–	–	–	–	–	–	–	–	–
SK-LU-1	0.27	0.298	0.261	0.407	0.361	0.341	0.614	0.599	0.615	0.924	0.648	0.734	0.766	0.786	0.614	0.918	0.143	0.169	0.165
PC-3 [JPC-3]	0.833	0.894	0.864	1.01	1.09	1.01	0.717	0.827	0.75	0.917	0.572	0.639	0.719	0.978	0.676	1.26	1.11	0.905	0.966
EMC-BAC-2	0.201	0.268	0.227	0.493	0.455	0.472	1.01	1.07	0.988	0.418	–	0.376	0.418	0.566	0.317	0.733	0.289	0.362	0.285
LK-2	0.186	0.193	0.161	0.611	0.624	0.698	0.275	0.269	0.352	0.242	0.205	0.311	0.37	0.242	0.303	0.28	0.206	0.227	0.168
NCI-H2126	0.429	0.818	0.781	0.927	0.939	0.938	0.532	0.596	0.605	0.817	0.749	0.814	0.732	0.786	0.708	0.794	0.577	0.655	0.426

Cell Line	relative viability ([1]; first compound 0.1 µM)	relative viability ([1]; first compound 0.3162 µM)	relative viability ([1]; first compound 1 µM)	relative viability ([2]; first compound 0.1 µM)	relative viability ([2]; first compound 0.3162 µM)	relative viability ([2]; first compound 1 µM)	relative viability ([3]; first compound 0.1 µM)	relative viability ([3]; first compound 0.3162 µM)	relative viability ([3]; first compound 1 µM)	relative viability ([4]; first compound 0.08 µM)	relative viability ([4]; first compound 2.53 µM)	relative viability ([4]; first compound 8 µM)	relative viability ([5]; first compound 0.1 µM)	relative viability ([5]; first compound 0.3162 µM)	relative viability ([5]; first compound 1 µM)	relative viability ([4]; first compound 0.8 µM)	relative viability ([6]; first compound 0.1 µM)	relative viability ([6]; first compound 0.3162 µM)	relative viability ([6]; first compound 1 µM)
NCI-H3122	0.259	0.362	0.299	0.739	0.632	0.608	0.392	0.417	0.403	1.08	1.06	1.13	1.07	1	0.988	1.06	0.747	0.738	0.816
NCI-H1975	0.44	0.734	0.389	0.814	0.841	0.613	0.372	0.315	0.343	0.755	0.654	0.647	0.744	0.702	0.603	0.75	0.329	0.362	0.285
NCI-H1944	0.25	0.225	0.209	0.407	0.383	0.408	0.435	0.451	0.421	0.551	0.513	0.52	0.668	0.571	0.516	0.53	0.21	0.235	0.196
LU99A	0.209	0.291	0.276	0.262	0.264	0.231	0.936	0.968	0.892	0.646	0.435	0.528	0.454	0.513	0.41	0.522	0.494	0.508	0.42
SW 1573	0.148	0.21	0.14	0.539	0.502	0.474	0.524	0.577	0.105	0.968	0.626	0.746	0.744	0.701	0.413	0.771	0.612	0.614	0.305
NCI-H2347	0.368	0.602	0.483	0.551	0.58	0.596	0.637	0.631	0.647	0.619	0.549	0.575	0.533	0.494	0.587	0.621	0.311	0.275	0.435
NCI-H2009	0.547	0.792	0.652	0.692	0.694	0.649	0.368	0.406	0.356	0.774	0.702	0.679	0.639	0.696	0.695	0.834	0.232	0.241	0.185
HCC-15	0.165	0.339	0.341	0.732	0.676	0.806	0.507	0.738	0.533	0.866	0.787	0.75	0.875	0.824	0.845	1.07	0.508	0.58	0.337
HCC-44	0.258	0.843	0.805	0.928	0.945	0.964	0.929	0.947	0.949	1.13	1.19	1.1	1.13	1.08	1.01	1.08	–	–	–
COR-L23	0.103	0.186	0.168	0.326	0.381	0.302	0.4	0.416	0.177	0.495	0.426	0.524	0.407	0.487	0.392	0.516	0.487	0.484	0.512
HCC-78	0.402	0.36	0.392	0.847	0.87	0.827	0.693	0.73	0.705	0.461	0.389	0.39	0.382	0.514	0.469	0.441	0.384	0.309	0.306
NCI-H1299	–	–	–	0.955	0.881	0.904	–	–	–	–	–	–	–	–	–	–	–	–	–
NCI-H2228	0.188	0.221	0.227	0.648	0.631	0.495	–	–	–	0.605	0.539	0.509	0.744	0.589	0.545	0.759	0.552	0.448	0.349
NCI-H1563	–	–	–	–	–	–	–	–	–	–	–	–	–	–	–	–	0.504	0.44	0.429
A549	–	–	–	0.391	0.269	0.354	0.121	0.302	0.257	–	–	–	–	–	–	–	–	–	–
NCI-H1623	0.414	0.486	0.397	–	–	–	–	–	–	–	–	–	–	–	–	–	0.339	0.45	0.408
IA-LM	–	–	–	0.829	0.751	0.819	–	–	–	–	0.851	1.07	0.901	0.95	0.979	1.21	–	–	–
CAL-12T	0.285	0.304	0.322	0.654	0.737	0.764	–	–	–	0.777	0.978	0.859	0.747	0.84	0.681	0.697	0.47	0.277	0.285
EBC-1	–	–	–	0.609	0.654	0.551	–	–	–	–	–	–	–	–	–	–	–	–	–
